Source: US4178442A, “Novel cinnamoyles piperazines and homopiperazines, the method of preparing them and their application in therapeutics” (Delalande S. A., priority 1977, dated 1979)
Like-named read-outs stand apart in the source and are kept apart here.

Columns and labels:
[1] = in vivo; conditions: for mortality: read-out: Toxicity (Mortality); for LD50: read-out: Toxicity: LD50
From the text: *LD50 or percentage of mortality which is given between brackets

[2] = tested on: anaesthetized dog; test: Antiangorous activity on anaesthetized dog: consumption of oxygen in the left ventricule and cardiac effort (KATZ's index); format: in vivo; conditions: for inhibition in vivo at […] / inhibition in vivo at 1.25 mg/kg / inhibition in vivo at 2.5 mg/kg / inhibition in vivo at 2.3 mg/kg / inhibition in vivo at 0.14 mg/kg / inhibition in vivo at 0.625 mg/kg / inhibition in vivo at 0.12 mg/kg / inhibition in vivo at 2.2 mg/kg: Canis lupus familiaris, iv
Method in brief: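 Katz index taken as mean arterial pressure multiplied by ECG (D2) heart rate, and myocardial O2 use as coronary sinus flow via modified Morawitz cannula times coronary arteriovenous O2 difference. Animals: pentobarbital-anaesthetized dogs (30 mg/kg i.v.), test compounds infused slowly intravenously.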

[3] = 1.25 mg/kg i.v. slow perfusion, read-out: Diminution in consumption of O2
[4] = 1.25 mg/kg i.v. slow perfusion, read-out: Diminution in the cardiac effort (IK)
[5] = 2.5 mg/kg i.v. slow perfusion, read-out: Diminution in consumption of O2
[6] = 2.5 mg/kg i.v. slow perfusion, read-out: Diminution in the cardiac effort (IK)
[7] = 0.15 mg/kg i.v. slow perfusion, read-out: Diminution in consumption of O2
[8] = 0.15 mg/kg i.v. slow perfusion, read-out: Diminution in the cardiac effort (IK)
[9] = 0.625 mg/kg i.v. slow perfusion

Cc1cccc(C)c1NC(=O)CN1CCN(CCCC(c2ccc(F)cc2)c2ccc(F)cc2)CC1 [LIDOFLAZINE, reference compound]
mortality ([1]; iv, 25 mg/kg i.v.): 50%
inhibition in vivo at […] ([2]; 1.5 mg/kg i.v. slow perfusion, read-out: Diminution in consumption of O2): 48%
inhibition in vivo at […] ([2]; 1.5 mg/kg i.v. slow perfusion, read-out: Diminution in the cardiac effort (IK)): 40%

COc1cc(/C=C/C(=O)N2CCN(CC(O)COc3ccc(CO)c4c3OCCO4)CC2)cc(OC)c1OC (centres unmarked) [760 705]
mortality ([1]; iv, 400 mg/kg i.v.): 20%
Diminution in consumption of O2: in time ([2]; 1.25 mg/kg i.v. slow perfusion): 38 min
Diminution in the cardiac effort (IK): in time ([2]; 1.25 mg/kg i.v. slow perfusion): 75 min
inhibition in vivo at 1.25 mg/kg [2, 3]: 51%
inhibition in vivo at 1.25 mg/kg [2, 4]: 26%

CNC(=O)Nc1ccc(OCCCN2CCN(C(=O)/C=C/c3cc(OC)c(OC)c(OC)c3)CC2)c2c1OCCO2 [780 040]
mortality ([1]; iv, 400 mg/kg i.v.): 30%
Diminution in consumption of O2: in time ([2]; 2.5 mg/kg i.v. slow perfusion): 15 min
inhibition in vivo at 2.5 mg/kg [2, 5]: 59%
inhibition in vivo at 2.5 mg/kg [2, 6]: 9%

COc1cc(/C=C/C(=O)N2CCN(CC(O)COc3ccc(C(C)(C)C)cc3)CC2)cc(OC)c1OC (centres unmarked) [770 859]
LD50 ([1]; iv): 150 mg/kg
Diminution in consumption of O2: in time ([2]; 2.5 mg/kg i.v. slow perfusion): 30 min
Diminution in the cardiac effort (IK): in time ([2]; 2.5 mg/kg i.v. slow perfusion): 60 min
inhibition in vivo at 2.5 mg/kg [2, 5]: 30%
inhibition in vivo at 2.5 mg/kg [2, 6]: 52%

COc1cc(/C=C/C(=O)N2CCN(CC(O)COc3cccc4c3CCCC4=O)CC2)cc(OC)c1OC (centres unmarked) [760 986]
LD50 ([1]; iv): 218 mg/kg
Diminution in consumption of O2: in time ([2]; 2.5 mg/kg i.v. slow perfusion): 60 min
Diminution in the cardiac effort (IK): in time ([2]; 2.5 mg/kg i.v. slow perfusion): 60 min
inhibition in vivo at 2.5 mg/kg [2, 5]: 61%
inhibition in vivo at 2.5 mg/kg [2, 6]: 27%

COc1cc(/C=C/C(=O)N2CCN(CC(O)COc3ccc(NC(C)=O)c4c3CCCC4)CC2)cc(OC)c1OC (centres unmarked) [780 044]
mortality ([1]; iv, 400 mg/kg i.v.): 10%
Diminution in consumption of O2: in time ([2]; 2.5 mg/kg i.v. slow perfusion): 30 min
Diminution in the cardiac effort (IK): in time ([2]; 2.5 mg/kg i.v. slow perfusion): 15 min
inhibition in vivo at 2.5 mg/kg [2, 5]: 49%
inhibition in vivo at 2.5 mg/kg [2, 6]: 36%

CCOC(=O)c1ccc(OCC(O)CN2CCN(C(=O)/C=C/c3cc(OC)c(OC)c(OC)c3)CC2)cc1 (centres unmarked) [760 382]
LD50 ([1]; iv): 260 mg/kg
Diminution in consumption of O2: in time ([2]; 2.5 mg/kg i.v. slow perfusion): 30 min
Diminution in the cardiac effort (IK): in time ([2]; 2.5 mg/kg i.v. slow perfusion): 30 min
inhibition in vivo at 2.5 mg/kg [2, 5]: 40%
inhibition in vivo at 2.5 mg/kg [2, 6]: 24%

COc1cc(/C=C/C(=O)N2CCN(CCCOc3ccc(C(C)=O)c4c3OCCO4)CC2)cc(OC)c1OC [760 939, 1-[3-(4-acetyl-2,3-ethylenedioxy)phenoxy]-propyl-4-(3,4,5-trimethoxycinnamoyl)piperazine]
mortality ([1]; iv, 400 mg/kg i.v.): 20%
Diminution in consumption of O2: in time ([2]; 1.25 mg/kg i.v. slow perfusion): 30 min
Diminution in the cardiac effort (IK): in time ([2]; 1.25 mg/kg i.v. slow perfusion): 23 min
inhibition in vivo at 1.25 mg/kg [2, 3]: 27%
inhibition in vivo at 1.25 mg/kg [2, 4]: 11%

COc1cccc(SCC(O)CN2CCN(C(=O)/C=C/c3cc(OC)c(OC)c(OC)c3)CC2)c1 (centres unmarked) [770 112]
LD50 ([1]; iv): 224 mg/kg
Diminution in consumption of O2: in time ([2]; 2.3 mg/kg i.v. slow perfusion): 23 min
Diminution in the cardiac effort (IK): in time ([2]; 2.3 mg/kg i.v. slow perfusion): 15 min
inhibition in vivo at 2.3 mg/kg ([2]; 2.3 mg/kg i.v. slow perfusion, read-out: Diminution in consumption of O2): 34%
inhibition in vivo at 2.3 mg/kg ([2]; 2.3 mg/kg i.v. slow perfusion, read-out: Diminution in the cardiac effort (IK)): 7%

CCC(=O)c1ccc(OCC(O)CN2CCN(C(=O)/C=C/c3cc(OC)c(OC)c(OC)c3)CC2)cc1 (centres unmarked) [770 854]
mortality ([1]; iv, 300 mg/kg i.v.): 20%
Diminution in consumption of O2: in time ([2]; 2.5 mg/kg i.v. slow perfusion): 40 min
Diminution in the cardiac effort (IK): in time ([2]; 2.5 mg/kg i.v. slow perfusion): 40 min
inhibition in vivo at 2.5 mg/kg [2, 5]: 41%
inhibition in vivo at 2.5 mg/kg [2, 6]: 18%

COc1cc(/C=C/C(=O)N2CCN(CC(O)COc3ccc(NC(=O)Nc4ccccc4)c4c3OCCO4)CC2)cc(OC)c1OC (centres unmarked) [770 085]
mortality ([1]; po, p.o.: 1855 mg/kg): 0%
inhibition in vivo at […] [2, 7]: 44%
inhibition in vivo at […] [2, 8]: 14%

COc1cc(/C=C/C(=O)N2CCN(CC(O)COc3ccc(NC(=O)NC4CCCCC4)c4c3OCCO4)CC2)cc(OC)c1OC (centres unmarked) [770 081]
LD50 ([1]; iv): 148 mg/kg
Diminution in consumption of O2: in time ([2]; 0.14 mg/kg i.v. slow perfusion): 53 min
Diminution in the cardiac effort (IK): in time ([2]; 0.14 mg/kg i.v. slow perfusion): 15 min
inhibition in vivo at 0.14 mg/kg ([2]; 0.14 mg/kg i.v. slow perfusion, read-out: Diminution in consumption of O2): 58%
inhibition in vivo at 0.14 mg/kg ([2]; 0.14 mg/kg i.v. slow perfusion, read-out: Diminution in the cardiac effort (IK)): 20%

CCOC(=O)Nc1ccc(OCC(O)CN2CCN(C(=O)/C=C/c3cc(OC)c(OC)c(OC)c3)CC2)c2c1OCCO2 (centres unmarked) [770 525]
LD50 ([1]; iv): 325 mg/kg
Diminution in consumption of O2: in time [2, 9]: 60 min
Diminution in the cardiac effort (IK): in time [2, 9]: 60 min
inhibition in vivo at 0.625 mg/kg ([2]; 0.625 mg/kg i.v. slow perfusion, read-out: Diminution in consumption of O2): 66%
inhibition in vivo at 0.625 mg/kg ([2]; 0.625 mg/kg i.v. slow perfusion, read-out: Diminution in the cardiac effort (IK)): 43%

COc1cc(C(C)=O)ccc1OCC(O)CN1CCN(C(=O)/C=C/c2cc(OC)c(OC)c(OC)c2)CC1 (centres unmarked) [770 073]
LD50 ([1]; iv): 158 mg/kg
Diminution in consumption of O2: in time ([2]; 0.12 mg/kg i.v. slow perfusion): 30 min
Diminution in the cardiac effort (IK): in time ([2]; 0.12 mg/kg i.v. slow perfusion): 15 min
inhibition in vivo at 0.12 mg/kg ([2]; 0.12 mg/kg i.v. slow perfusion, read-out: Diminution in consumption of O2): 24%
inhibition in vivo at 0.12 mg/kg ([2]; 0.12 mg/kg i.v. slow perfusion, read-out: Diminution in the cardiac effort (IK)): 16%

CNC(=O)Nc1ccc(OCC(O)CN2CCN(C(=O)/C=C/c3cc(OC)c(OC)c(OC)c3)CC2)cc1C (centres unmarked) [770 898]
mortality ([1]; iv, 400 mg/kg i.v.): 0%
Diminution in consumption of O2: in time ([2]; 2.5 mg/kg i.v. slow perfusion): 45 min
Diminution in the cardiac effort (IK): in time ([2]; 2.5 mg/kg i.v. slow perfusion): 38 min
inhibition in vivo at 2.5 mg/kg [2, 5]: 45%
inhibition in vivo at 2.5 mg/kg [2, 6]: 36%

CNC(=O)N(C)c1ccc(OCC(O)CN2CCN(C(=O)/C=C/c3cc(OC)c(OC)c(OC)c3)CC2)c2c1OCCO2 (centres unmarked) [771 238]
mortality ([1]; iv, 400 mg/kg i.v.): 0%
Diminution in consumption of O2: in time ([2]; 1.25 mg/kg i.v. slow perfusion): 30 min
Diminution in the cardiac effort (IK): in time ([2]; 1.25 mg/kg i.v. slow perfusion): 30 min
inhibition in vivo at 1.25 mg/kg [2, 3]: 40%
inhibition in vivo at 1.25 mg/kg [2, 4]: 38%

COc1cc(/C=C/C(=O)N2CCN(CC(O)COc3ccc(C(C)=O)cc3)CC2)cc(OC)c1OC (centres unmarked) [760 385]
mortality ([1]; iv, 351 mg/kg i.v.): 10%
Diminution in consumption of O2: in time ([2]; 2.2 mg/kg i.v. slow perfusion): 15 min
Diminution in the cardiac effort (IK): in time ([2]; 2.2 mg/kg i.v. slow perfusion): 15 min
inhibition in vivo at 2.2 mg/kg ([2]; 2.2 mg/kg i.v. slow perfusion, read-out: Diminution in consumption of O2): 65%
inhibition in vivo at 2.2 mg/kg ([2]; 2.2 mg/kg i.v. slow perfusion, read-out: Diminution in the cardiac effort (IK)): 16%

COc1cc(/C=C/C(=O)N2CCN(CC(O)COc3ccc(C(C)=O)c4c3OCO4)CC2)cc(OC)c1OC (centres unmarked) [780 308]
mortality ([1]; iv, 400 mg/kg i.v.): 10%
Diminution in consumption of O2: in time ([2]; 2.5 mg/kg i.v. slow perfusion): 45 min
Diminution in the cardiac effort (IK): in time ([2]; 2.5 mg/kg i.v. slow perfusion): 45 min
inhibition in vivo at 2.5 mg/kg [2, 5]: 49%
inhibition in vivo at 2.5 mg/kg [2, 6]: 37%

COc1cc(/C=C/C(=O)N2CCN(CC(O)COc3cccc4c3OCCO4)CC2)cc(OC)c1OC (centres unmarked) [760 519]
LD50 ([1]; iv): 218 mg/kg
Diminution in consumption of O2: in time ([2]; 2.5 mg/kg i.v. slow perfusion): 15 min
Diminution in the cardiac effort (IK): in time ([2]; 2.5 mg/kg i.v. slow perfusion): 15 min
inhibition in vivo at 2.5 mg/kg [2, 5]: 51%
inhibition in vivo at 2.5 mg/kg [2, 6]: 11%

CNC(=O)Nc1ccc(OCC(O)CN2CCN(C(=O)/C=C/c3cc(OC)c(OC)c(OC)c3)CC2)c2c1OCO2 (centres unmarked) [780 409]
mortality ([1]; iv, 400 mg/kg i.v.): 20%
Diminution in consumption of O2: in time ([2]; 2.5 mg/kg i.v. slow perfusion): 90 min
Diminution in the cardiac effort (IK): in time ([2]; 2.5 mg/kg i.v. slow perfusion): 90 min
inhibition in vivo at 2.5 mg/kg [2, 5]: 54%
inhibition in vivo at 2.5 mg/kg [2, 6]: 43%

CCCNC(=O)Nc1ccc(OCC(O)CN2CCN(C(=O)/C=C/c3cc(OC)c(OC)c(OC)c3)CC2)c2c1OCCO2 (centres unmarked) [770 483]
mortality ([1]; po, p.o.: 2000 mg/kg): 0%
inhibition in vivo at […] [2, 7]: 74%
inhibition in vivo at […] [2, 8]: 16%
